# Values quoted from earlier work, collected in patent publication US20090012066A1, “Method of Use of Deacetylase Inhibitors” (Novartis AG, priority 2005, published 2009).
# What was measured:
# [1] = test system: cardiac hypertrophy in transgenic mice that over-express Hop; settings: transgenic mice over-expressing Hop; Kook et al. 2003
# [2] = test system: hypertrophy induced by infusion of isoproterenol
compound,measurement,setting,value
CC(/C=C/C(=O)NO)=C\[C@@H](C)C(=O)c1ccc(N(C)C)cc1 [trichostatin A],effect on cardiac hypertrophy,[1],prevents cardiac hypertrophy
same,effect on hypertrophy induced by infusion of isoproterenol,[2],attenuates hypertrophy
